Several values for one entry are separate records, joined by “and”; a condition that tells them apart may be missing. Identical values can stand only once. Like-named read-outs stand apart in the source and are kept apart here. One block for each molecule: values may come before it.
Tests used:
[1] = biological target: T1, [^3 H]BFI binding sites (I2 binding site) (Homo sapiens, UniProt P27338); assay: Ligand competition for [^3 H]BFI binding in human cortex; conditions: for Affinity in competition for [^3 H]BFI binding: human brain
T1 construct: Frozen sections of human cortex (Brodman's areas 8,9,10), human medulla; from tissue; host or cells: P2 membranes of human cortex (Brodmann areas 8, 9, 10) and human medulla (NRL)
T1 sequence (P27338 2-520 limits assumed): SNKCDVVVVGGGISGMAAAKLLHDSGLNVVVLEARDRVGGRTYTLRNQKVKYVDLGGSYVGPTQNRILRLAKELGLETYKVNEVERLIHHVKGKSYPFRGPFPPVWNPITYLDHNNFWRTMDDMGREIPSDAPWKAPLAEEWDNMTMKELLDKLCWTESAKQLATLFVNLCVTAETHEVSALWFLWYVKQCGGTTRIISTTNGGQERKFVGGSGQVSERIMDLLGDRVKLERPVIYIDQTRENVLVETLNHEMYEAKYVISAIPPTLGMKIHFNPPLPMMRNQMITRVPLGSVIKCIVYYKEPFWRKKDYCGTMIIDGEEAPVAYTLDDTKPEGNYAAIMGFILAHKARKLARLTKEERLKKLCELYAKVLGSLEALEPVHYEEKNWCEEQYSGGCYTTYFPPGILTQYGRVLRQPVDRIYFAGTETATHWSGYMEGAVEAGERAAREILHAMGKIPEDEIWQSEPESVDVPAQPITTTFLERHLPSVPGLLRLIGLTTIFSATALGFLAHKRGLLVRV
Protocol: (§1) Membrane fractions were isolated at 4° C. using differential centrifugation as follows: Homogenates were centrifuged at 500×g to remove nuclei and cell debris followed by 45,000×g to obtain the P2 membrane fraction. The P2 pellet was washed twice with 50 mM Tris-HCl buffer. Between washes the pellet resuspension was incubated for 30 min at 25° C. to allow dissociation of endogenous ligands from their receptors. The final pellet was resuspended in 50 mM Tris-HCl, pH 7.5, and stored at -70° C. until used.
(§2) Binding data were calculated as fmol bound ligand/mg protein. Protein was determined by the Lowry method. Binding constants were calculated by nonlinear curve fitting (Lundon Software) and the fit to a one or two site model was tested using two-way ANOVA. Relative MAO activity was calculated as CPM/mg protein/min or moles/mg protein/min.

I2 sites = conditions: read-out: KD of [^3 H]BFI binding; rabbit cortex, previously reported; cited from earlier work
rat liver MAO A = conditions: cited from earlier work
rat liver MAO B = conditions: cited from earlier work
[2] = biological target: [^3 H]BFI binding sites (I2 binding site); assay: Ligand competition for [^3 H]BFI binding in human cortex; conditions: human cortex, 8 nM [^3 H]BFI, two-site fit
Protocol: as §1, §2

MAO = type: biochemical, human
Protocol: MAO activity was measured with [^14 C]tyramine as substrate using a modification of the method by Yu [P. H. YU, Neuromethods, Neurotransmitter Enzymes, A. A. Boulton, G. B. Baker and P. H. Yu, 235-272, Humana Press, Clifton, N.J. (1986))]. Membranes were incubated with [^14 C]tyramine (0.5 mM) at 21° C., pH 7.4 for 40 min. Enzyme activity was stopped by lowering pH to 1.0 with 2 M HCl. The radiolabeled products of MAO degradation (p-hydroxyphenylacetic acid and p-hydroxymandelic acid) were then extracted into toluene ethyl acetate by vortexing for 15 min and aliquots of the organic phase counted. Extraction was enhanced by the addition of a 1 mg/ml carrier concentration of both products and saturating concentration of NaCl.
as §2
Data are mean±SEM of 3 experiments. […] The data is depicted in FIG. 5.
Data are expressed as percent of maximum binding or MAO activity and represent the mean±SEM of 3 experiments. […] The data is depicted in FIG. 6.

Affinity in competition for [^3 H]BFI binding [1]: low affinity
SMILES: COc1nc(C)nc(Cl)c1N=C1NCCN1 [moxonidine]

SMILES: N=C(N)N/N=C/c1c(Cl)cccc1Cl [guanabenz]
Ki [1]: 72.5 ± 24 nM
Affinity in competition for [^3 H]BFI binding [1]: high affinity

SMILES: c1ccc2oc(C3=NCCN3)cc2c1 [[^3 H]BFI, 2-(2-benzofuranyl)-2-imidazoline]
Kd (I2 sites): 2.7 nM

SMILES: c1ccc2oc(C3=NCCN3)cc2c1 [BFI, 2-(2-benzofuranyl)-2-imidazoline]
Inhibition of rat liver MAO A (rat liver MAO A): inhibits
Inhibition of rat liver MAO B (rat liver MAO B): inhibits

SMILES: Clc1cccc(Cl)c1N=C1NCCN1 [clonidine]
Affinity in competition for [^3 H]BFI binding [1]: low affinity
Ki ([2]; read-out: Ki for competition of [^3 H]BFI binding, two-site model, first (high-affinity) value): 73.4 ± 24.6 nM
Ki ([2]; read-out: Ki for competition of [^3 H]BFI binding, two-site model, second (low-affinity) value): 86300 ± 11100 nM

Ki [1]: 9400 ± 1800 nM
Affinity in competition for [^3 H]BFI binding [1]: low affinity
SMILES: COC1(C2=NCCN2)COc2ccccc2O1 (stereo not drawn) [RX821002]

SMILES: N=C(N)NC(=O)c1nc(Cl)c(N)nc1N [amiloride]
Affinity in competition for [^3 H]BFI binding [1]: low affinity

Ki [1]: 13 ± 4.5 nM
Affinity in competition for [^3 H]BFI binding [1]: high affinity
SMILES: c1ccc(C2CC2)c(OCC2=NCCN2)c1 [cirazoline]

SMILES: N[C@@H]1C[C@H]1c1ccccc1 (relative stereo) [TCP, Tranylcypromine]
Inhibition of MAO activity (MAO; 1 μM TCP preincubation (maximal potentiation of binding)): 80%
TCP concentration of maximal inhibition of MAO activity (MAO; 40 min preincubation, washed): 3 µM
Maximal inhibition of MAO activity (MAO; TCP concentrations >3 μM): 95%
Potentiation of BFI binding in guinea pig tissues by TCP (BFI binding sites): not seen

SMILES: C#CCN(C)Cc1ccccc1 [pargyline]
Inhibition of basal MAO activity (MAO; preincubation with 10 μM pargyline, all durations (10, 30, 60 min)): > 90% and 90%

Ki [1]: 80.4 ± 17 nM
SMILES: c1ccc2c(c1)OCC(C1=NCCN1)O2 (stereo not drawn) [idazoxan]
Inhibition of rat liver MAO A (rat liver MAO A): not
